In patent US10219728B2, “Analyte monitoring: stabilizer for subcutaneous glucose sensor with incorporated antiglycolytic agent” (Abbott Diabetes Care Inc., priority 2005, dated 2019):
Read-outs that look alike come from different tables or passages of the source. One block for each compound: values may come before it.

Legend:
[1] = tested on: blood clot (red blood cells adjacent to the sensor); test: Glucose depletion at sensors inserted into blood clots, current response followed over time; format: cell-based; settings: sensor with approximately 138 micrograms racemic D-/L-glyceraldehyde as thin outer coating, control sensors about 2 hour
Method: Glucose sensors are inserted into small silicon tubes containing the appropriate biological fluid. The tubes are maintained at about 37 degrees Celsius, and the glucose sensor is monitored.
Antiglycolytic sensors were prepared by modification of control sensors (FREESTYLE NAVIGATOR®) as follows. A coating solution was prepared from 250 mg/mL of a racemic mixture of L-glyceraldehyde and D-glyceraldehyde, and 150 mg/mL in polymer PC-1306 (Biocompatibles, PLC), the former suspended and the latter dissolved in ethanol. The resulting antiglycolytic sensors had approximately 138 micrograms of the racemic mixture of D- and L-glyceraldehydes incorporated as a thin, outer coating. Both these sensors and control sensors (no antiglycolytic agents added) were then inserted into blood clots, and the current response was followed over time.
The depletion is much delayed (up to about 12 hours) in the glyceraldehydes-containing sensors.

[2] = Antiglycolytic-modified sensor and control sensor implanted side by side in the arm of a non-diabetic subject; format: in vivo; settings: FREESTYLE NAVIGATOR sensor with overcoat of about 55 micrograms L-glyceraldehyde, versus control sensor
Method: A further example of the use of an antiglycolytic sensor is provided by its use in an in vivo environment. In this example, a control sensor (FREESTYLE NAVIGATOR®) is inserted in the arm of a non-diabetic subject, adjacent to a similar sensor, which has been modified by the addition of an antiglycolytic agent, L-glyceraldehyde. A coating solution was made 200 mg/mL in L-glyceraldehyde, and 150 mg/mL in polymer PC-1306 (Biocompatibles, PLC), both dissolved in ethanol. The FREESTYLE NAVIGATOR® sensor was then modified by dipping twice into this coating solution, yielding an overcoat containing about 55 micrograms of L-glyceraldehyde. […] Glucose readings below 60 mg/dL are not anticipated in non-diabetic subjects, and are therefore considered to be anomalous, reflecting either (a) sensor malfunctions, or more likely (b) local inhomogeneities of glucose concentration (in the vicinity of a wound, for example) wherein the glucose concentration deviates substantially from the systemic value. Such deviations are observed with some regularity in control sensors, but are not observed in sensors modified with L-glyceraldehyde.

[3] = 50 mg/ml boric acid with 150 mg/ml L-glyceraldehyde and 150 mg/mL PC in outer membrane, stress at 56° C. for nine days, nonheparin blood
Method: An example of the use of an antiglycolytic sensor containing borate minerals, boric acid or any precursor thereof, is provided by its testing in an in vitro environment. 50 mg/ml boric acid was mixed with 150 mg/ml L-glyceraldehyde and 150 mg/mL PC in 100% ethanol. The sensor was dipped three times with a 10 minute interval. The sensor was then cured overnight, and subjected to stress at 56° C. for nine days and subsequently tested in nonheparin blood.

SMILES: O=CC(O)CO (racemic) [glyceraldehydes, racemic mixture of L-glyceraldehyde and D-glyceraldehyde]
- glucose depletion period [1]: up to 12 hours

SMILES: O=C[C@@H](O)CO [L-glyceraldehyde]
- large negative deviation in signal (values well below 60 mg/dL) during the night [2]: not observed

- high background current after stress [3]: significantly reduced
- high background current after stress ([3]; listed as borate): reduced significantly
SMILES: OB(O)O [boric acid]
